The source of these data is patent US20140148443A1, “Novel Imidazolines as dual inhibitors of MDM2 and MDMX” (priority 2012, published 2014).

In one assay the target is T1, GST-tagged MDMX (Homo sapiens, UniProt O15151).
T1 sequence (O15151 1-490): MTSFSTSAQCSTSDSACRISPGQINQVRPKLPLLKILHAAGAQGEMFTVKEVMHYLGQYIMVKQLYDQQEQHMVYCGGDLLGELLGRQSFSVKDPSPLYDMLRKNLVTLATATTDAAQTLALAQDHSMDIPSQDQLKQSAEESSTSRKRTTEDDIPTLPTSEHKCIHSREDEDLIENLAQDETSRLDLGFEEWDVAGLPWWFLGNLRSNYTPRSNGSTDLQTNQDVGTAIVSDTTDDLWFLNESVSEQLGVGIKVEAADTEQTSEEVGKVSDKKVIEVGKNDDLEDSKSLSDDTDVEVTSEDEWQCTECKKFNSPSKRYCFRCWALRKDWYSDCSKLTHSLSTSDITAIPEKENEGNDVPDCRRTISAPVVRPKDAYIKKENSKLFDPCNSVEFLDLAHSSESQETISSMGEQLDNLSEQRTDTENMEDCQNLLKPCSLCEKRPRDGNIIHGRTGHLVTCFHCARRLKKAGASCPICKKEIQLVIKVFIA
Kind of assay: HTRF binding assay of GST-tagged MDMX to p53 peptide. (TR-FRET usually uses a lanthanide donor and a delayed reading to cut background.)

For assay [1], the target named is recombinant GST-tagged MDM2 (Homo sapiens, UniProt Q00987). Kind of assay: HTRF assay of interaction between p53 peptide and GST-tagged MDM2. As to conditions: inhibition of GST-MDM2 (160 ng/ml) binding to biotinylated p53-peptide. The method in brief:
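Compounds were preincubated with 160 ng/ml GST-MDM2 and 90 nM N-terminally biotinylated p53-like peptide (final) in 20 mM TBS, 0.02% BSA, 1 mM DTT for 1 h at 37 °C. Eu-anti-GST antibody and streptavidin-APC were added for 30 min at room temperature; binding read as TR-FRET at 665 and 615 nm.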

Sequence of recombinant GST-tagged MDM2 (Q00987 whole entry): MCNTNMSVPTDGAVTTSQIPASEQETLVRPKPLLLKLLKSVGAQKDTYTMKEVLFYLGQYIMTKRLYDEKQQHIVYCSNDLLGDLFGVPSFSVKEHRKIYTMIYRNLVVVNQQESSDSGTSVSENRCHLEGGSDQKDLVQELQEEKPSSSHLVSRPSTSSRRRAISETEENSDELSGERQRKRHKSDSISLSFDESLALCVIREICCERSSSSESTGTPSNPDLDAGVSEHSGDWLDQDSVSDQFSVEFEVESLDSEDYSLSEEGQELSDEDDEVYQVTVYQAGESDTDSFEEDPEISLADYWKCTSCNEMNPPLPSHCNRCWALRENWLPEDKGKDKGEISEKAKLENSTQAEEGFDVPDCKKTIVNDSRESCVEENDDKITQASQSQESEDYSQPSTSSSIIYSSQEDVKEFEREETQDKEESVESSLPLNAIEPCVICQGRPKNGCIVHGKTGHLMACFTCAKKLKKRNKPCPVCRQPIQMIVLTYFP

As to `CC(C)Oc1cc(Cl)c(S(C)(=O)=O)cc1C1=N[C@@](C)(c2ccc(Cl)cc2)[C@@](C)(c2ccc(Cl)cc2)N1C(=O)N1CCN(CCCS(C)(=O)=O)CC1` [Example 40, [(4S,5R)-2-(4-Chloro-2-isopropoxy-5-methanesulfonyl-phenyl)-4,5-bis-(4-chloro-phenyl)-4,5-dimethyl-4,5-dihydro-imidazol-1-yl]-[4-(3-methanesulfonyl-propyl)-piperazin-1-yl]-methanone], the half-inhibitory concentration (IC50) at GST-tagged MDMX worked out at 290 nM; in assay [1], 6.1 nM.

Turning to `CC(C)Oc1cc(Cl)c(S(C)(=O)=O)cc1C1=N[C@@](C)(c2ccc(Cl)cc2)[C@@](C)(c2ccc(Cl)cc2)N1C(=O)N1CCC(CC(N)=O)CC1` [Example 41, 2-{1-[(4S,5R)-2-(4-Chloro-2-isopropoxy-5-methanesulfonyl-phenyl)-4,5-bis-(4-chloro-phenyl)-4,5-dimethyl-4,5-dihydro-imidazole-1-carbonyl]-piperidin-4-yl}-acetamide], the figures for the IC50 (on GST-tagged MDMX; in assay [1]) were 170 nM and 6.9 nM, respectively.

As to `C[C@@]1(c2ccc(Cl)cc2)N=C(c2cc(S(C)(=O)=O)c(Cl)cc2OCC2CC2)N(C(=O)N2CCN(CCCS(C)(=O)=O)CC2)[C@]1(C)c1ccc(Cl)cc1` [Example 42, [(4S,5R)-2-(4-Chloro-2-cyclopropylmethoxy-5-methanesulfonyl-phenyl)-4,5-bis-(4-chloro-phenyl)-4,5-dimethyl-4,5-dihydro-imidazol-1-yl]-[4-(3-methanesulfonyl-propyl)-piperazin-1-yl]-methanone], the 50% inhibitory concentration (IC50) was 6630 nM on GST-tagged MDMX and 12.5 nM in assay [1].

Take `C[C@@]1(c2ccc(Cl)cc2)N=C(c2cc(S(C)(=O)=O)c(Cl)cc2OCCF)N(C(=O)N2CCN(CCCS(C)(=O)=O)CC2)[C@]1(C)c1ccc(Cl)cc1` [Example 43, [(4S,5R)-2-[4-Chloro-2-(2-fluoro-ethoxy)-5-methanesulfonyl-phenyl]-4,5-bis-(4-chloro-phenyl)-4,5-dimethyl-4,5-dihydro-imidazol-1-yl]-[4-(3-methanesulfonyl-propyl)-piperazin-1-yl]-methanone]: the concentration for half-maximal inhibition (IC50) amounted to 1380 nM at GST-tagged MDMX and 9.7 nM in assay [1].

As for `CCC(C)Oc1cc(Cl)c(S(C)(=O)=O)cc1C1=N[C@@](C)(c2ccc(Cl)cc2)[C@@](C)(c2ccc(Cl)cc2)N1C(=O)N1CCN(CCCS(C)(=O)=O)CC1` (stereo partly drawn) [Example 44, [(4S,5R)-2-(2-sec-Butoxy-4-chloro-5-methanesulfonyl-phenyl)-4,5-bis-(4-chloro-phenyl)-4,5-dimethyl-4,5-dihydro-imidazol-1-yl]-[4-(3-methanesulfonyl-propyl)-piperazin-1-yl]-methanone], the IC50 at GST-tagged MDMX amounted to 1530 nM; in assay [1], 13.9 nM.

Regarding `CCOc1cc(Cl)c(S(=O)(=O)NC(C)(C)C)cc1C1=N[C@@](C)(c2ccc(Cl)cc2)[C@@](C)(c2ccc(Cl)cc2)N1C(=O)N1CCN(CCC(O)CO)CC1` (stereo partly drawn) [Example 45, 5-{(4S,5R)-4,5-Bis-(4-chloro-phenyl)-1-[4-(3,4-dihydroxy-butyl)-piperazine-1-carbonyl]-4,5-dimethyl-4,5-dihydro-1H-imidazol-2-yl}-N-tert-butyl-2-chloro-4-ethoxy-benzene sulfonamide], the values for the IC50 (at GST-tagged MDMX; in assay [1]) were 1130 nM and 12.9 nM, respectively.

`CCOc1cc(Cl)c(S(=O)(=O)NC(C)(C)C)cc1C1=N[C@@](C)(c2ccc(Cl)cc2)[C@@](C)(c2ccc(Cl)cc2)N1C(=O)N1CCN(CCOCCO)CC1` [Example 46, 5-((4S,5R)-4,5-Bis-(4-chloro-phenyl)-1-{4-[2-(2-hydroxy-ethoxy)-ethyl]-piperazine-1-carbonyl}-4,5-dimethyl-4,5-dihydro-1H-imidazol-2-yl)-N-tert-butyl-2-chloro-4-ethoxy-benzenesulfonamide]: the IC50 on GST-tagged MDMX stood at 1810 nM; in assay [1], 12.2 nM.

For `CCOc1cc(Cl)c(S(=O)(=O)NC(C)(C)C)cc1C1=N[C@@](C)(c2ccc(Cl)cc2)[C@@](C)(c2ccc(Cl)cc2)N1C(=O)N1CCN(CC(=O)N2CCN(C)CC2)CC1` [Example 47, 5-((4S,5R)-4,5-Bis-(4-chloro-phenyl)-4,5-dimethyl-1-{4-[2-(4-methyl-piperazin-1-yl)-2-oxo-ethyl]-piperazine-1-carbonyl}-4,5-dihydro-1H-imidazol-2-yl)-N-tert-butyl-2-chloro-4-ethoxy-benzenesulfonamide], the half-maximal inhibitory concentration (IC50) on GST-tagged MDMX worked out at 1080 nM; in assay [1], 6.6 nM.

For `CCOc1cc(Cl)c(S(=O)(=O)NC(C)(C)C)cc1C1=N[C@@](C)(c2ccc(Cl)cc2)[C@@](C)(c2ccc(Cl)cc2)N1C(=O)N1CCN(CC(=O)NCCOC)CC1` [Example 49, 2-{4-[(4S,5R)-2-(5-tert-Butylsulfamoyl-4-chloro-2-ethoxy-phenyl)-4,5-bis-(4-chloro-phenyl)-4,5-dimethyl-4,5-dihydro-imidazole-1-carbonyl]-piperazin-1-yl}-N-(2-methoxy-ethyl)-acetamide], the 50% inhibitory concentration (IC50) at GST-tagged MDMX is 1340 nM; in assay [1] it was 8.7 nM.

For `CCOc1cc(Cl)c(S(=O)(=O)NC(C)(C)C)cc1C1=N[C@@](C)(c2ccc(Cl)cc2)[C@@](C)(c2ccc(Cl)cc2)N1C(=O)N1CCN(CCC(N)=O)CC1` [Example 50, 3-{4-[(4S,5R)-2-(5-tert-Butylsulfamoyl-4-chloro-2-ethoxy-phenyl)-4,5-bis-(4-chloro-phenyl)-4,5-dimethyl-4,5-dihydro-imidazole-1-carbonyl]-piperazin-1-yl}-propionamide], the half-maximal inhibitory concentration (IC50) at GST-tagged MDMX amounted to 1450 nM; in assay [1], 9.3 nM.

On to `CCOc1cc(Cl)c(S(=O)(=O)NC(C)(C)C)cc1C1=N[C@@](C)(c2ccc(Cl)cc2)[C@@](C)(c2ccc(Cl)cc2)N1C(=O)N1CCN(C2CCS(=O)(=O)C2)CC1` (stereo partly drawn) [Example 51, 5-{(4S,5R)-4,5-Bis-(4-chloro-phenyl)-1-[4-(1,1-dioxo-tetrahydro-thiophen-3-yl)-piperazine-1-carbonyl]-4,5-dimethyl-4,5-dihydro-1H-imidazol-2-yl}-N-tert-butyl-2-chloro-4-ethoxy-benzenesulfonamide], for which the 50% inhibitory concentration (IC50) on GST-tagged MDMX amounted to 798 nM; in assay [1], 7 nM.

Turning to `CCOc1cc(Cl)c(S(=O)(=O)NC(C)(C)C)cc1C1=N[C@@](C)(c2ccc(Cl)cc2)[C@@](C)(c2ccc(Cl)cc2)N1C(=O)N1CCN(C(=O)Cn2cnnn2)CC1` [Example 52, 5-{(4S,5R)-4,5-Bis-(4-chloro-phenyl)-4,5-dimethyl-1-[4-(2-tetrazol-1-yl-acetyl)-piperazine-1-carbonyl]-4,5-dihydro-1H-imidazol-2-yl}-N-tert-butyl-2-chloro-4-ethoxy-benzene sulfonamide], the IC50 at GST-tagged MDMX was 3760 nM; in assay [1], 17.3 nM.

With `CCOc1cc(Cl)c(S(=O)(=O)NC(C)(C)C)cc1C1=N[C@@](C)(c2ccc(Cl)cc2)[C@@](C)(c2ccc(Cl)cc2)N1C(=O)N1CCC(N2CCNC(=O)CC2)CC1` [Example 53, 5-{(4S,5R)-4,5-Bis-(4-chloro-phenyl)-4,5-dimethyl-1-[4-(5-oxo-[1,4]diazepan-1-yl)-piperidine-1-carbonyl]-4,5-dihydro-1H-imidazol-2-yl}-N-tert-butyl-2-chloro-4-ethoxy-benzene sulfonamide], the concentration for half-maximal inhibition (IC50) at GST-tagged MDMX was 1110 nM; in assay [1], 14.5 nM.

Turning to `CCOc1cc(Cl)c(S(=O)(=O)NC(C)(C)C)cc1C1=N[C@@](C)(c2ccc(Cl)cc2)[C@@](C)(c2ccc(Cl)cc2)N1C(=O)N1CCCC(O)C1` (stereo partly drawn) [Example 54, 5-[(4S,5R)-4,5-Bis-(4-chloro-phenyl)-1-(3-hydroxy-piperidine-1-carbonyl)-4,5-dimethyl-4,5-dihydro-1H-imidazol-2-yl]-N-tert-butyl-2-chloro-4-ethoxy-benzenesulfonamide], the figures for the IC50 (on GST-tagged MDMX; in assay [1]) were 4000 nM and 16.1 nM, respectively.

On to `CCCOc1cc(Cl)c(S(=O)(=O)N2CCCC2)cc1C1=N[C@@](C)(c2ccc(Cl)cc2)[C@@](C)(c2ccc(Cl)cc2)N1C(=O)N1CCN(CCCS(C)(=O)=O)CC1` [Example 55, {(4S,5R)-4,5-Bis-(4-chloro-phenyl)-2-[4-chloro-2-propoxy-5-(pyrrolidine-1-sulfonyl)-phenyl]-4,5-dimethyl-4,5-dihydro-imidazol-1-yl}-[4-(3-methanesulfonyl-propyl)-piperazin-1-yl]-methanone], for which the half-maximal inhibitory concentration (IC50) at GST-tagged MDMX stood at 3940 nM; in assay [1] it was 18.1 nM.

Turning to `CCOc1cc(Cl)c(S(=O)(=O)N2CCCC2)cc1C1=N[C@@](C)(c2ccc(Cl)cc2)[C@@](C)(c2ccc(Cl)cc2)N1C(=O)N1CCC(CC(N)=O)CC1` [Example 56, 2-{1-[(4S,5R)-2-[4-Chloro-2-ethoxy-5-(pyrrolidine-1-sulfonyl)-phenyl]-4,5-bis-(4-chloro-phenyl)-4,5-dimethyl-4,5-dihydro-imidazole-1-carbonyl]-piperidin-4-yl}-acetamide], the 50% inhibitory concentration (IC50) at GST-tagged MDMX turned out to be 3430 nM; in assay [1], 8.5 nM.

For `CCOc1cc(Cl)c(S(=O)(=O)N2CCOCC2)cc1C1=N[C@@](C)(c2ccc(Cl)cc2)[C@@](C)(c2ccc(Cl)cc2)N1C(=O)N1CCN(CCCS(C)(=O)=O)CC1` [Example 57, [(4S,5R)-2-[4-Chloro-2-ethoxy-5-(morpholine-4-sulfonyl)-phenyl]-4,5-bis-(4-chloro-phenyl)-4,5-dimethyl-4,5-dihydro-imidazol-1-yl]-[4-(3-methanesulfonyl-propyl)-piperazin-1-yl]-methanone], the IC50 at GST-tagged MDMX was 1640 nM; in assay [1] it was 40 nM.

By IC50 is commonly meant the midpoint of a concentration-inhibition curve.
